Data published in patent US9493466B2, “Treatment of cancer with TOR kinase inhibitors” (Signal Pharmaceuticals, LLC, priority 2011, dated 2016).

Test system: U87MG tumors
Test: U87MG human glioblastoma xenograft model (Compound 1)
Format: in vivo, SCID mice
Conditions: positive control, 4 mg/kg Q3D IP, 18 days
Description: U87MG Human Glioblastoma Xenograft Model (Compound 1). Efficacy Studies: Groups of female SCID mice bearing U87MG tumors (n=8-10/group) were dosed orally with vehicle or Compound 1 throughout the study, starting when tumor volumes reached approximately 200 mm^3. The twice daily (BID) dose groups were dosed with a 10-hour separation between morning and evening doses. In the positive control group, rapamycin was administered Q3D via intraperitoneal (IP) route. At the end of each study, plasma and/or tumor samples were collected.
Cell Line and Culture. U87MG cell line was obtained from American Tissue Culture Collection (ATCC) (Gaithersberg, Md.) and grown in growth medium containing MEM, 2 mM L-glutamine, 0.1 mM non-essential amino acids and 1 mM sodium pyruvate and 10% fetal bovine serum (FBS). The cells were detached from tissue culture flasks using trypsin-EDTA. After centrifugation, the cell pellets were suspended in phosphate buffered saline (PBS) and counted using a hemocytometer. The final volume was adjusted to 5×10^6 cells/0.1 mL of PBS.
Tumor Cell Inoculation. Mice were anesthetized with inhaled isoflurane and then inoculated with U87MG tumor cells subcutaneously on the right hind leg with 0.1 mL of a single cell suspension in PBS using a sterile 1 mL syringe fitted with a 26 gauge needle. Following inoculation, the mice were returned to microisolator cages
Randomization of Animals. Following inoculation, tumors were allowed to grow to about 200 mm^3 prior to randomization. The typical number of days required for tumors to reach 200 mm^3 was 14-15 days. The tumor of each animal was measured and animals with tumors ranging between 175-250 mm^3 were included in the study. Animals from the pool were then distributed randomly into various cages and the cages were randomly assigned to vehicle, positive control, or test article groups. All of the mice were tagged with metal ear tags on the right ear.
Test Article Preparation and Administration. Suspensions of Compound 1 were prepared in aqueous 0.5% CMC and 0.25% Tween-80. The formulations were homogenized using a Teflon™ pestle and mortar (Potter-Elvehjem tissue grinder). Between the doses, the formulated compound was stored under constant stirring using a magnetic stirrer at 4° C. in the dark. The test article and vehicle were administered by oral gavage. The positive control, rapamycin, was prepared as solution in 2% ethanol, 45% polyethyleneglycol 400, and 53% saline and administered by IP injection. Sterile syringes and gavage needles were used for compound administration. All of the procedures including injections were done in biosafety cabinets disinfected with 70% ethanol prior to use.
Tumor Measurements. Tumor volumes were determined prior to the initiation of treatment and were considered as the starting volumes. Thereafter, tumors were measured twice a week for the duration of the study. The long and short axes of each tumor were measured using a digital caliper in millimeters. Tumor volumes were calculated using the formula: width^2×length/2. The tumor volumes were expressed in cubic millimeters (mm^3).
Tumor Growth Delay (TGD) Calculations. Tumor growth delay is the difference in days for treated versus control tumors to reach a volume of 1000 mm^3. The TGD was calculated from the data plotted in a graph format.
Body Weight Measurements. Initial body weights were recorded prior to the initiation of treatment using a digital scale. The percent body weight change during the course of the study was calculated using initial body weight measurements. Body weights of each animal were measured twice a week at the same time as the tumor measurements. Body weights were measured more frequently if significant decreases were noted during the course of the study.

## CO[C@H]1C[C@@H]2CC[C@@H](C)[C@@](O)(O2)C(=O)C(=O)N2CCCC[C@H]2C(=O)O[C@H]([C@H](C)C[C@@H]2CC[C@@H](O)[C@H](OC)C2)CC(=O)[C@H](C)/C=C(\C)[C@@H](O)[C@@H](OC)C(=O)[C@H](C)C[C@H](C)/C=C/C=C/C=C/1C [rapamycin, reference compound]
  change in body weight: No significant change
